Earlier results on one molecule are cited in patent US20230295082A1, “MODIFIED EZETIMIBE DRUG FOR CANCER TREATMENT” (University of South Africa, priority 2020, published 2023).

The structures appear in SMILES notation.

One series addresses Mdm2 p53-binding domain (Homo sapiens, UniProt Q00987). The following applies: applicant's previous work.
Series [1] relates to cancer cell lines, especially those that overexpress Mdm2.

Sequence of Mdm2 p53-binding domain (Q00987 26-109 limits assumed): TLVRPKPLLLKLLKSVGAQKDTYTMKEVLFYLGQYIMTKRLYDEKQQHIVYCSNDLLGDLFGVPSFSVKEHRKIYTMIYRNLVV

As to `O=C1[C@H](CC[C@H](O)c2ccc(F)cc2)[C@@H](c2ccc(O)cc2)N1c1ccc(F)cc1` [ezetimibe], the “binding to the Mdm2 hydrophobic pocket relative to nutlins” value at Mdm2 p53-binding domain is recorded as “bind more strongly than nutlins”. Moreover, the “toxicity to cancer cell lines” value in series [1] is recorded as “toxic to cancer cell lines”.
